Measurements as given in patent US4542210A, “1-β-D-Arabinofuranosyl-(E)-5-(2-halogenovinyl)-uracil-5'-phosphate, preparation thereof and use thereof” (Yamasa Shoyu Kabushiki Kaisha, priority 1981, dated 1985).
≈ marks a conversion by molar mass, not a printed value. Where a name gives a salt, the structure may show the parent alone. Read-outs that look alike come from different tables or passages of the source.

Legend:
HSV-2-MS = test: Antiviral activity in human embryonic lung fibroblasts (method of Sidwell et al), HSV-2-MS; assay type: cell-based, herpes simplex virus type 2 strain MS; design: MIC: minimum inhibitory concentration at which HSV induced cytopathogenic effects were depressed more than 50%: unit not given here
Protocol: (§1) According to the method of Sidwell et al (Applied Microbiology, 22, (5), 797 (1971)), with the use of human embryonic lung fibroblasts, the antiviral activities of BVAUP and CVAUP were tested, with BVAU, CVAU and 5-iodo-2'-deoxyuridine (IDU) as controls.
(§2) effects were depressed more than 50%;
^2 HSV2-MS: herpes simplex virus type 2 strain MS

Solubility in water = assay type: physicochemical
HSV-1-VR-3 = test: Antiviral activity in human embryonic lung fibroblasts (method of Sidwell et al), HSV-1-VR-3; assay type: cell-based, herpes simplex virus type 1 strain VR3; design: MIC: minimum inhibitory concentration at which HSV induced cytopathogenic effects were depressed more than 50%: unit not given here
Protocol: as §1, §2
^1 HSV1-VR-3: herpes simplex virus type 1 strain VR3

[1] = test system: RE strain of HSV (type 1); test: Ulcerative herpetic keratitis in pigmented rabbits, ointment treatment; assay type: in vivo, RE strain; pigmented rabbits; design: Effect (lesion inhibition): unit not given here; details: for Effect (lesion inhibition): control 0; for % score: control 100
Protocol: (1) Pigmented rabbits, weighing between 2.0 and 3.0 kg, were anesthetised with intravenous pentobarbital sodium (30 mg/kg) and given a retrobulbar injection of 0.5 ml of 1% procaine. For inoculation a suspension of the RE strain of HSV (type 1) was drawn into a fine glass capillary tube (British Journal of Ophthalmology, Vol. 63, No. 6, 425-428 (1979).
After inoculation the eye was left open for 30 seconds and then the lids were closed with cellophane tape. The same procedure was repeated on the other eye. In one group of 3 rabbits the right eyes were treated with 1% BVAUP ointment and the left eyes with 1% BVAU ointment, or vice versa. In another group 3 eyes received no treatment as controls. The treatment was started 48 hours after inoculation and continued every 2 hours during the daytime 5 times a day for 4 days. The eyes were examined 48 hours after inoculation and then every 24 hours with a photo-slit lamp after applying 1% Bengal rose. Each inoculation site was scored according to the extent of the circumference infected.
The total daily score for each eye was calculated and expressed as a percentage of the score (percentage score) immediately before treatment. The therapeutic efficacies of BVAUP and BVAU against ulcerative herpetic keratitis were compared by calculating their average percentage scores.
(2) 0.3% BVAUP ointment and 3% BVAUP ointment were respectively prepared, and were subjected to the similar pharmacological test as shown in (1).

type 2 herpes (HSV-2) = test: Antiviral activity against HSV-2 compared with HSV-1 or VZV (general statement)
[2] = Acute toxicity (LD50) in mice; details: mouse, in vivo
[3] = 1% ointment, 5 times a day for 4 days
[4] = 1% ointment, 5 times a day for 4 days, control 97.0

In the case of `O=c1[nH]c(=O)n([C@@H]2O[C@H](CO)[C@@H](O)[C@@H]2O)cc1/C=C/Br` [BVAU, 1-β-D-arabinofuranosyl-(E)-5-(2-bromovinyl)uracil, reference compound], the “MIC: minimum inhibitory concentration at which HSV induced cytopathogenic effects were depressed more than 50%” value (HSV-2-MS) is reported as 32, the “VR: virus rating” value (HSV-2-MS) is reported as 1.1 and the solubility (Solubility in water) is reported as 4 mg/mL (≈ 11.5 mM). For the same molecule, the “MIC: minimum inhibitory concentration at which HSV induced cytopathogenic effects were depressed more than 50%” value (HSV-1-VR-3) was 0.032, the “VR: virus rating” value (HSV-1-VR-3) was 3.7 and the “Effect (lesion inhibition)” value [1, 3] was 43.0. For the same molecule, the “Total score per eye” value [1, 4] was 55.3 and the “% score” value [1, 3] was 57.0%.

With `O=c1[nH]c(=O)n([C@@H]2O[C@H](COP(=O)(O)O)[C@@H](O)[C@@H]2O)cc1/C=C/Br` [BVAUP, 1-β-D-arabinofuranosyl-(E)-5-(2-bromovinyl)uracil-5'-phosphate] the “antiviral activity against HSV-2” value (type 2 herpes (HSV-2)) was “lower than that against the type 1 herpes (HSV-1) or VZV”, the LD50 ([2]; ip, intraperitoneally, read-out: LD50, intraperitoneal) was 1730 mg/kg and the LD50 ([2]; iv, intravenously, read-out: LD50, intravenous) was 1610 mg/kg. For the same molecule, the “MIC: minimum inhibitory concentration at which HSV induced cytopathogenic effects were depressed more than 50%” value (HSV-2-MS) was 32, the “VR: virus rating” value (HSV-2-MS) was 1.1 and the “MIC: minimum inhibitory concentration at which HSV induced cytopathogenic effects were depressed more than 50%” value (HSV-1-VR-3) was 0.032. The “VR: virus rating” value (HSV-1-VR-3) was 3.8, the “Effect (lesion inhibition)” value ([1]; 0.3% ointment) was 38.3 and the “Total score per eye” value ([1]; 0.3% ointment, control 88.7) was 54.7. The “% score” value ([1]; 0.3% ointment) was 61.7%, the “Effect (lesion inhibition)” value [1, 3] was 53.9 and the “Total score per eye” value [1, 4] was 44.7. For the same molecule, the “% score” value [1, 3] was 46.1%, the “Effect (lesion inhibition)” value ([1]; 3% ointment) was 71.9 and the “% score” value ([1]; 3% ointment) was 28.1%. For the same molecule, the “Total score per eye” value ([1]; 3% ointment, control 114.0) was 32.0.

For `O=c1[nH]c(=O)n([C@@H]2O[C@H](CO)[C@@H](O)[C@@H]2O)cc1/C=C/Cl` [CVAU, 1-β-D-arabinofuranosyl-(E)-5-(2-chlorovinyl)uracil], the “MIC: minimum inhibitory concentration at which HSV induced cytopathogenic effects were depressed more than 50%” value (HSV-2-MS) was 100, the “VR: virus rating” value (HSV-2-MS) was 0.7 and the “MIC: minimum inhibitory concentration at which HSV induced cytopathogenic effects were depressed more than 50%” value (HSV-1-VR-3) was 0.032. The “VR: virus rating” value (HSV-1-VR-3) was 3.7.

In the case of `O=c1[nH]c(=O)n([C@@H]2O[C@H](COP(=O)(O)O)[C@@H](O)[C@@H]2O)cc1/C=C/Cl` [CVAUP, 1-β-D-arabinofuranosyl-(E)-5-(2-chlorovinyl)uracil-5'-phosphate], the “MIC: minimum inhibitory concentration at which HSV induced cytopathogenic effects were depressed more than 50%” value (HSV-2-MS) is reported as 320, the “VR: virus rating” value (HSV-2-MS) is reported as 0.5 and the “MIC: minimum inhibitory concentration at which HSV induced cytopathogenic effects were depressed more than 50%” value (HSV-1-VR-3) is reported as 0.032. For the same molecule, the “VR: virus rating” value (HSV-1-VR-3) was 3.7.

For `O=c1[nH]c(=O)n([C@H]2C[C@H](O)[C@@H](CO)O2)cc1I` [IDU, 5-iodo-2'-deoxyuridine], the “MIC: minimum inhibitory concentration at which HSV induced cytopathogenic effects were depressed more than 50%” value (HSV-2-MS) was 3.2, the “VR: virus rating” value (HSV-2-MS) was 2.2 and the “MIC: minimum inhibitory concentration at which HSV induced cytopathogenic effects were depressed more than 50%” value (HSV-1-VR-3) was 3.2. The “VR: virus rating” value (HSV-1-VR-3) was 2.4.

In the case of `O=c1[nH]c(=O)n([C@@H]2O[C@H](COP(=O)(O)O)[C@@H](O)[C@@H]2O)cc1/C=C/Br` [disodium salt of 1-β-D-arabinofuranosyl-(E)-5-(2-bromovinyl)uracil-5'-phosphate], the solubility (Solubility in water) is reported as about 500 mg/mL.
